Data published in patent US10874638B2, “Methods and compositions for modulating hormone levels” (priority 2014, dated 2020).
Read-outs that look alike come from different tables or passages of the source.

Assays:
[1] = test system: ovariectomized mature female rats; experiment: Ovariectomized mature female rat model; assay type: in vivo; conditions: for uterine wet weight decrease after OVX surgery / bone density decrease caused by OVX (uCT trabecular bone in the femur, pQCT distal femur): daily for 8 weeks, 17α-ethynylestradiol 0.03 mg/kg/day; for uterine wet weight decrease after OVX surgery: Compound 1 0.01, 0.05, 0.25 mg/kg (all doses); for bone density decrease caused by OVX (uCT trabecular bone in the femur, pQCT distal femur): Compound 1 0.01, 0.05, 0.25 mg/kg
Procedure: Ovariectomized mature female rats are used to characterize primarily bone activity of the compositions provided herein or the individual SERM or SARM compounds. A sham group is used as control. The model can be run in either maintenance mode where the animals are dosed one day after the ovariectomy or restoration mode where the animals are dosed seven to eight weeks after the surgery. The rats are scanned by dual energy x-ray absorptiometry and sorted into experimental groups based upon femoral bone mineral content (BMC). Three dosages of testing compositions/compounds are administered orally once a day for 4, 8, or 12 weeks and estradiol and testosterone are administered subcutaneously to the reference groups. Animals received subcutaneous injections of fluorochrome markers for bone histomorphometric analysis. Alizarian Red S was prepared as a 3% solution and given at a dose of 30 mg/kg at the time of the baseline scan. Calcein was administered 10 days and 3 days prior to necropsy.
Approximately 24 hours after the last dose, blood is collected and the gastrocnemius muscle, plantaris muscle, uterus, clitoral glands, clitoris and inguinal fat pads were isolated, blotted and weighed individually. The left femur and lumbar vertebra L5 are wrapped in saline-soaked gauze and stored at −20° C. for biochemical analysis. The right femur and lumbar vertebrae L3-L4 are collected and stored in 70% ethanol for histomorphometry. The right tibia is collected in formalin for histological analysis. The left tibia is collected on dry ice and stored at −20° C. for measurement of alkaline phosphatase activity.
BMC, bone mineral density (BMD) and bone length are measured by pDEXA on an entire femur. The coefficient of variation for repeated measurement of the isolated femur is less than 0.4% for the BMC and the BMD measurements. […] Serum osteocalcin, a marker for bone turnover, and alkaline phosphatase derived from the tibial periosteum are also measured. Whole femurs are collected for biomechanical analysis and thawed at room temperature prior to testing. Peak load and peak displacement are measured directly from the load cell and the crosshead, respectively. Stiffness is calculated from the slope of the linear region of the load/displacement curve. Lumbar vertebra L5 is also measured in the mechanical testing for bone strength.
Bone histomorphometry is performed to indicate growth of the new bone during the study. The section from the lumbar vertebral bodies is used for histomorphometric indices of cancellous bone, while the sections of the femur mid-shafts are used for histomorphometric indices of cortical bone.
Body weight, gastrocnemius weight and plantaris weight changes are measured indicating anabolic activity of the testing compositions/compounds on skeletal muscle. Inguinal fat pad weight is used as a representative fat pad to assess the effects of the testing compounds on body fat. Clitoral gland and clitoral weights are measured to assess the virilizing effect of drugs.
In the maintenance node of this model, (5R,6S)-6-phenyl-5-[4-(2-pyrrolidin-1-ylethoxy)phenyl]-5,6,7,8-tetrahydronaphthalen-2-ol (Compound 1) was dosed daily at 0 (sham), 0 (OVX), 0.01, 0.05, and 0.25 mg/kg for 8 weeks and 17α-ethynylestradiol was dosed at 0.03 mg/kg/day. […] Micro-computerized tomography (uCT) measured the density and connectivity of the trabecular bone in the femur and pQCT measured at the distal femur.
In the restoration mode of this osteopenic female rat model, 4-(2(R)-(1(S)-hydroxyl-2,2,2-trifluoroethyl)-pyrrolidinyl)-2-trifluoromethylbenzonitrile (Compound 2, Formula I, R^1═CF3, R^2═R^3═H) was dosed at 0 (sham), 0 (OVX), 0.03, 0.3, and 3 mg/kg orally for 12 weeks. […] Compound 2 suppressed cancellous bone turnover while increasing trabecular bone volume and increasing bone mineral density at the lumbar spine.
In the same experiment of Compound 2, another SARM compound, ostarine, was dosed at 0.03, 0.3, and 3 mg/kg/day orally for 12 weeks.

[2] = test system: intact cynomolgus male and female monkeys; experiment: Intact cynomolgus monkey model; assay type: in vivo; conditions: Day 90
Procedure: Intact cynomolgus male and female monkeys are used to assess of the effects of the compositions provided herein or the individual SERM or SARM compounds on hypothalamic-pituitary-gonadal axis and lipid profile. All animals are dosed via oral or nasol gavage once daily for consecutive days with either vehicle or testing articles of different doses. The first day of dosing is designated Day 1 for all animals. Blood samples are collected for analysis of LH, FSH, T, Estrodiol, total cholesterol, triglycerides, cortisol, and coagulation parameters included prothrombin time (PT) and activated partial thromboplastin time on Days −3 and end of the study.
In this model, Compound 2 was dosed at 0, 5, 50, 150, and 450 mg/kg/day for 14 days. […] In a separate study, the compound was dosed at 0, 3, 10, 30, 120, and 500 mg/kg/day for 30 days. […] Serum testosterone was suppressed in males as indicated by lower 75th, 50th, and 25th percentile values in samples from treated monkeys than vehicle controls.
In this model, Compound 1 was dosed at 0, 1, 5, and 15 mg/kg/day for 3 months.

[3] = test system: intact cynomolgus male and female monkeys; experiment: Intact cynomolgus monkey model; assay type: in vivo; conditions: females, Day 90
ER = conditions: read-out: IC50 binding affinity to ER; cited from earlier work
postmenopausal women = conditions: cited from earlier work
healthy male subjects = assay type: in vivo, human
Procedure: In a random, double-blind, placebo controlled study, Compound 1 was given orally to healthy male subjects age from 18 to 45 years. Subjects received either placebo or Compound 1 under fasted/fed conditions at single escalating doses of 0, 1, 3, 10, 30, and 100 mg. Total serum T level was determined at days 0, 1, 7, 14, 21, and 28.

[4] = target: T1, 5α-reductase type I isoenzyme (Homo sapiens, UniProt P18405); conditions: cited from earlier work
T1 sequence (P18405 1-259): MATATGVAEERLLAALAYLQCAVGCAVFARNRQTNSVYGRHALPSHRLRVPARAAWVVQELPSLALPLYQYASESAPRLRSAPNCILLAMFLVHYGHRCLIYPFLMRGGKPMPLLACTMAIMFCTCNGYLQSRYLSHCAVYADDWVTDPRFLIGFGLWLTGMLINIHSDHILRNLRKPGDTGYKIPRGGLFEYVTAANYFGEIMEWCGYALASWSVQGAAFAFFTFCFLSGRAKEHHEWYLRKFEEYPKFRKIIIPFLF

prostate DHT level = conditions: in clinic; up to; cited from earlier work
[5] = test system: orchidectomized male Sprague-Dawley rat; experiment: Orchidectomized mature male rat model; conditions: based on AUC-activity relationship analysis
[6] = 100 mg fasted, single oral dose
[7] = OVX rat, subcutaneous reference

## 17α-ethynylestradiol
[1]; maintenance mode
  uterine wet weight decrease after OVX surgery: completely blocked
  bone density decrease caused by OVX (uCT trabecular bone in the femur, pQCT distal femur): prevent the bone density decrease

## Oc1ccc2c(c1)CC[C@H](c1ccccc1)[C@@H]2c1ccc(OCCN2CCCC2)cc1 [Compound 1, (5R,6S)-6-phenyl-5-[4-(2-pyrrolidin-1-ylethoxy)phenyl]-5,6,7,8-tetrahydronaphthalen-2-ol]
[2]; especially in males, 1, 5, 15 mg/kg/day for 3 months
  triglycerides: significant increase
[2]; females, 15 mg/kg/day for 3 months
  serum cholesterol increase, of the corresponding Day −7 values: […]
[2]; males, 1, 5, 15 mg/kg/day for 3 months
  serum cholesterol: did not change
[1]; maintenance mode, 8 weeks daily dosing
  bone strength on the lumbar vertebrae: maintained the bone strength
[1]; maintenance mode
  uterine wet weight decrease after OVX surgery: block the decrease but at much less extend
  bone density decrease caused by OVX (uCT trabecular bone in the femur, pQCT distal femur): prevent the bone density decrease
[3]; 1 mg/kg/day for 3 months
  serum cholesterol increase, of the corresponding Day −7 values: 26%
[3]; 5 mg/kg/day for 3 months
  serum cholesterol increase, of the corresponding Day −7 values: 16%
ER
  IC50: […]
Postmenopausal women
  beneficial effects in postmenopausal women: reduced risks of nonvertebral and vertebral fractures, ER-positive breast cancer, coronary heart disease, and stroke
Healthy male subjects; 1 mg fasted, single oral dose
  Changes of T levels from baseline, Day 1 2 h: 9.9%
  Changes of T levels from baseline, Day 29: 18%
Healthy male subjects; 3 mg fasted, single oral dose
  Changes of T levels from baseline, Day 1 2 h: 13%
  Changes of T levels from baseline, Day 22: 68%
  Changes of T levels from baseline, Day 29: 50%
Healthy male subjects; 10 mg fasted, single oral dose
  Changes of T levels from baseline, Day 1 2 h: −0.5%
  Changes of T levels from baseline, Day 22: 81%
  Changes of T levels from baseline, Day 29: 29%
Healthy male subjects; 30 mg fasted, single oral dose
  Changes of T levels from baseline, Day 1 2 h: −6.9%
  Changes of T levels from baseline, Day 1 12 h: −64%
  Changes of T levels from baseline, Day 8: 39%
  Changes of T levels from baseline, Day 15: 71%
  Changes of T levels from baseline, Day 29: 81%
Healthy male subjects; [6]
  Changes of T levels from baseline, Day 1 12 h: −50%
  Changes of T levels from baseline, Day 8: 84%
  Changes of T levels from baseline, Day 15: 104%
  Changes of T levels from baseline, Day 22: 92%
Healthy male subjects; 100 mg fed, single oral dose
  Changes of T levels from baseline, Day 1 12 h: −48%
  Changes of T levels from baseline, Day 8: 86%
  Changes of T levels from baseline, Day 15: 89%
  Changes of T levels from baseline, Day 29: 91%
Healthy male subjects; men
  stimulation of T production (pharmacokinetic/pharmacodynamic profile in men): superior potency and prolonged mechanism of action
Healthy male subjects; single escalating oral doses 1 to 100 mg
  total serum T level: dose related increase
Healthy male subjects; single oral dose, healthy male subjects
  duration of the elevation of T level: […]

## CCC(=O)O[C@H]1CC[C@H]2[C@@H]3CCC4=CC(=O)CC[C@]4(C)[C@H]3CC[C@]12C [Testosterone propionate]
[1]; OVX rat, 1 mg/kg daily dose
  clitoral gland and clitoral weights (virilizing effect): significantly increases

## C[C@]12CC[C@H]3[C@@H](CCC4=CC(=O)CC[C@@]43C)[C@@H]1CC[C@@H]2O [Testosterone, testosterone]
[1]; [7]
  femur bending stiffness: increases
  femur bending strength: does not significantly increase

## CC(C)(C)NC(=O)[C@H]1CC[C@H]2[C@@H]3CC[C@H]4NC(=O)C=C[C@]4(C)[C@H]3CC[C@]12C [finasteride, N-(1,1-dimethylethyl)-3-oxo-(5α,17β)-4-azaandrost-1-ene-17-carboxamide]
[4]
  IC50: 42 nM
Prostate DHT level
  reduction of prostate DHT level: 85-90%

## C[C@](O)(COc1ccc(C#N)cc1)C(=O)Nc1ccc(C#N)c(C(F)(F)F)c1 [ostarine]
[5]
  potency relative to Compound 2 (fold less): ~10 fold
[1]; restoration mode, higher exposure = decreased potency
  exposure at maximal efficacy relative to Compound 2: ~10 fold
